# System: 855422-203-R-J1-PDC complex spheroid viability
# Experiment: Anticancer human tumor 855422-203-R-J1-PDC patient-derived bladder carcinoma cell line growth inhibition [POLQ]
# Settings: for IC50: curve of first compound; for viability, T/C: stronger effect = lower value
# Procedure, shortened: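 PDC + HUVEC + MSC complex spheroids; POLQ inhibitors ± partner drugs; top conc. at/near clinical Cmax, else 10 microM (SN-38 1 microM), half-log dilutions; 37 degrees C, 5% CO2.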
# [1] = second compound 0.0316 µM, first compound 0.0316 µM
# [2] = second compound 0.0316 µM, first compound 0.1 µM
# [3] = second compound 0.0316 µM, first compound 0.316 µM
# [4] = second compound 0.0316 µM, first compound 1 µM
# [5] = second compound 0.0316 µM, first compound 3.16 µM
# [6] = second compound 0.0316 µM, first compound 10 µM
# [7] = second compound 0.1 µM, first compound 0.0316 µM
# [8] = second compound 0.1 µM, first compound 0.1 µM
# [9] = second compound 0.1 µM, first compound 0.316 µM
# [10] = second compound 0.1 µM, first compound 1 µM
# [11] = second compound 0.1 µM, first compound 3.16 µM
# [12] = second compound 0.1 µM, first compound 10 µM
# [13] = second compound 0.316 µM, first compound 0.0316 µM
# [14] = second compound 0.316 µM, first compound 0.1 µM
# [15] = second compound 0.316 µM, first compound 0.316 µM
# [16] = second compound 0.316 µM, first compound 1 µM
# [17] = second compound 0.316 µM, first compound 3.16 µM
# [18] = second compound 0.316 µM, first compound 10 µM
# [19] = second compound 1 µM, first compound 0.0316 µM
# [20] = second compound 1 µM, first compound 0.1 µM
# [21] = second compound 1 µM, first compound 0.316 µM
# [22] = second compound 1 µM, first compound 1 µM
# [23] = second compound 1 µM, first compound 3.16 µM
# [24] = second compound 1 µM, first compound 10 µM
# [25] = second compound 3.16 µM, first compound 0.0316 µM
# [26] = second compound 3.16 µM, first compound 0.1 µM
# [27] = second compound 3.16 µM, first compound 0.316 µM
# [28] = second compound 3.16 µM, first compound 1 µM
# [29] = second compound 3.16 µM, first compound 3.16 µM
# [30] = second compound 3.16 µM, first compound 10 µM
# [31] = second compound 10 µM, first compound 0.0316 µM
# [32] = second compound 10 µM, first compound 0.1 µM
# [33] = second compound 10 µM, first compound 0.316 µM
# [34] = second compound 10 µM, first compound 1 µM
# [35] = second compound 10 µM, first compound 3.16 µM
# [36] = second compound 10 µM, first compound 10 µM
# 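Also: spheroids exposed to compounds for seven days before readout.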
smiles,measurement,setting,value
COc1cc2cc(C(=O)CCC(=O)O)sc2cc1OC + Cc1cccc(N(C)C(=O)C2C(O)CCN2c2nc(C)cc(C(F)(F)F)c2C#N)c1,IC50,second compound 0.0316 µM,> 10 µM
same,IC50,second compound 0.1 µM,> 10 µM
same,IC50,second compound 0.316 µM,> 10 µM
same,IC50,second compound 1 µM,> 10 µM
same,IC50,second compound 3.16 µM,> 10 µM
same,IC50,second compound 10 µM,> 10 µM
same,"viability, T/C",[1],111%
same,"viability, T/C",[2],118%
same,"viability, T/C",[3],106%
same,"viability, T/C",[4],94%
same,"viability, T/C",[5],108%
same,"viability, T/C",[6],113%
same,"viability, T/C",[7],108%
same,"viability, T/C",[8],118%
same,"viability, T/C",[9],100%
same,"viability, T/C",[10],108%
same,"viability, T/C",[11],122%
same,"viability, T/C",[12],125%
same,"viability, T/C",[13],96.6%
same,"viability, T/C",[14],149%
same,"viability, T/C",[15],103%
same,"viability, T/C",[16],95.5%
same,"viability, T/C",[17],116%
same,"viability, T/C",[18],102%
same,"viability, T/C",[19],85.4%
same,"viability, T/C",[20],131%
same,"viability, T/C",[21],102%
same,"viability, T/C",[22],129%
same,"viability, T/C",[23],112%
same,"viability, T/C",[24],89.2%
same,"viability, T/C",[25],118%
same,"viability, T/C",[26],122%
same,"viability, T/C",[27],102%
same,"viability, T/C",[28],126%
same,"viability, T/C",[29],129%
same,"viability, T/C",[30],120%
same,"viability, T/C",[31],108%
same,"viability, T/C",[32],127%
same,"viability, T/C",[33],121%
same,"viability, T/C",[34],114%
same,"viability, T/C",[35],114%
same,"viability, T/C",[36],114%
COc1ccc([C@@H](O)c2cc(-c3ncnc4cc(N5CCOCC5)ccc34)c(F)cc2Cl)nn1 + COC1C(OC(N)=O)C(O)C(Oc2ccc3c(O)c(NC(=O)c4ccc(O)c(CC=C(C)C)c4)c(=O)oc3c2C)OC1(C)C,IC50,second compound 0.0316 µM,6.47 µM
same,IC50,second compound 0.1 µM,6.5 µM
same,IC50,second compound 0.316 µM,6.58 µM
same,IC50,second compound 1 µM,6.17 µM
same,IC50,second compound 3.16 µM,6.5 µM
same,IC50,second compound 10 µM,6.48 µM
same,"viability, T/C",[1],107%
same,"viability, T/C",[2],102%
same,"viability, T/C",[3],95.7%
same,"viability, T/C",[4],81.1%
same,"viability, T/C",[5],71.9%
same,"viability, T/C",[6],37.7%
same,"viability, T/C",[7],90.4%
same,"viability, T/C",[8],113%
same,"viability, T/C",[9],101%
same,"viability, T/C",[10],89.8%
same,"viability, T/C",[11],68.6%
same,"viability, T/C",[12],39.1%
same,"viability, T/C",[13],119%
same,"viability, T/C",[14],121%
same,"viability, T/C",[15],101%
same,"viability, T/C",[16],86.9%
same,"viability, T/C",[17],64.5%
same,"viability, T/C",[18],41.9%
same,"viability, T/C",[19],110%
same,"viability, T/C",[20],108%
same,"viability, T/C",[21],93.8%
same,"viability, T/C",[22],98.7%
same,"viability, T/C",[23],68.7%
same,"viability, T/C",[24],35.3%
same,"viability, T/C",[25],109%
same,"viability, T/C",[26],107%
same,"viability, T/C",[27],106%
same,"viability, T/C",[28],84.8%
same,"viability, T/C",[29],73.2%
same,"viability, T/C",[30],37.2%
same,"viability, T/C",[31],121%
same,"viability, T/C",[32],110%
same,"viability, T/C",[33],110%
same,"viability, T/C",[34],91.2%
same,"viability, T/C",[35],71.7%
same,"viability, T/C",[36],36.9%

# Reference: PubChem BioAssay AID1963838 (Molecular Pharmacology Branch, DTP, NCI, 2024)
